Data as given in DBAASP.
Converted amounts (≈) assume the structure as drawn.

How the values were obtained:
Assay in all cases: ≥ marks a high value that may be exact or a test limit, other limits are often not marked, values filed in µg/mL are converted to µM
[1] = tested on: Pseudomonas aeruginosa Ps4
[2] = tested on: Bacillus subtilis ATCC 6051
[3] = tested on: Staphylococcus aureus NCTC 8325-4
[4] = tested on: Salmonella enterica subsp. enterica serovar Typhimurium LT2
[5] = tested on: Klebsiella pneumoniae NCIMB 13218
[6] = tested on: Staphylococcus aureus RF122
[7] = tested on: Escherichia coli NCIMB 11843
[8] = tested on: Cronobacter sakazakii DPC 6440
[9] = tested on: Staphylococcus aureus Newman
[10] = tested on: Pseudomonas fluorescens NCIMB 9046
[11] = tested on: Cronobacter sakazakii ATCC BAA-894
[12] = tested on: Cronobacter muytjensii ATCC 51329
[13] = tested on: Staphylococcus aureus SA113
[14] = tested on: Staphylococcus aureus RN4220
[15] = tested on: Cronobacter sakazakii DSM 4485
[16] = tested on: Escherichia coli JW0013
[17] = tested on: Pseudomonas aeruginosa ATCC 27853

MIC [3] [µM]	MIC [4] [µM]	MIC [5] [µM]	MIC [6] [µM]	MIC [7] [µM]	MIC [8] [µM]	MIC [9] [µM]	MIC [10] [µM]	MIC [11] [µM]	MIC [12] [µM]	MIC [13] [µM]	MIC [14] [µM]	MIC [15] [µM]	MIC [16] [µM]	SMILES	further results
–	–	–	–	–	–	–	–	–	–	–	–	–	–	CC[C@H](C)[C@H](NC(=O)[C@H](CC(N)=O)NC(=O)[C@H](CCCN=C(N)N)NC(=O)[C@H](CCC(N)=O)NC(=O)[C@H](Cc1c[nH]c2ccccc12)NC(=O)[C@@H](N)CS)C(=O)N[C@@H](CCCN=C(N)N)C(=O)N[C@@H](CCCCN)C(=O)N[C@@H](CS)C(=O)N[C@@H](CCCN=C(N)N)C(N)=O [CWQRNIRKCR]	MIC [1]: ≥ 183 µM
–	–	–	–	–	–	–	–	–	–	–	–	–	–	CC[C@H](C)[C@H](NC(=O)[C@H](CCCCN)NC(=O)[C@H](CCCCN)NC(=O)[C@H](CCCCN)NC(=O)[C@@H](NC(=O)[C@H](CCCCN)NC(=O)[C@H](CCCN=C(N)N)NC(=O)[C@@H](NC(=O)[C@H](CC(N)=O)NC(=O)[C@H](CCCN=C(N)N)NC(=O)[C@H](CCC(N)=O)NC(=O)[C@H](Cc1c[nH]c2ccccc12)NC(=O)[C@@H](N)Cc1ccccc1)[C@@H](C)CC)C(C)C)C(N)=O [FWQRNIRKVKKKI]	MIC [1]: ≥ 143 µM
–	–	–	–	–	–	–	–	–	–	–	–	–	–	CC(C)[C@H](NC(=O)[C@H](CCCCN)NC(=O)[C@H](CCCN=C(N)N)NC(=O)[C@H](Cc1ccc(O)cc1)NC(=O)[C@H](CC(N)=O)NC(=O)[C@H](CCCN=C(N)N)NC(=O)[C@H](CCC(N)=O)NC(=O)[C@H](Cc1c[nH]c2ccccc12)NC(=O)[C@@H](N)Cc1ccccc1)C(=O)N[C@@H](CCCN=C(N)N)C(N)=O [FWQRNYRKVR]	MIC [1]: ≥ 172 µM
–	–	–	–	–	–	–	–	–	–	–	–	–	–	CC[C@H](C)[C@H](NC(=O)[C@H](CCCN=C(N)N)NC(=O)[C@H](Cc1c[nH]c2ccccc12)NC(=O)[C@@H](N)Cc1ccccc1)C(=O)N[C@@H](CCCN=C(N)N)C(=O)N[C@@H](CCCCN)C(=O)N[C@H](C(=O)N[C@@H](CCCN=C(N)N)C(N)=O)C(C)C [FWRIRKVR]	MIC [1]: ≥ 215 µM
–	–	–	–	–	–	–	–	–	–	–	–	–	–	CC[C@H](C)[C@H](NC(=O)[C@@H](N)Cc1cnc[nH]1)C(=O)N[C@@H](CCC(N)=O)C(=O)N[C@@H](CCCCN)C(=O)N[C@@H](CCC(=O)O)C(=O)N[C@@H](CC(=O)O)C(=O)N[C@H](C(=O)N1CCC[C@H]1C(=O)N[C@@H](CO)C(=O)N[C@@H](CCC(=O)O)C(=O)N[C@@H](CCCN=C(N)N)C(=O)N[C@@H](Cc1ccc(O)cc1)C(=O)N[C@@H](CC(C)C)C(=O)NCC(=O)N[C@@H](Cc1ccc(O)cc1)C(=O)N[C@@H](CC(C)C)C(=O)N[C@@H](CCC(=O)O)C(=O)N[C@@H](CCC(N)=O)C(=O)N[C@@H](CC(C)C)C(=O)N[C@@H](CC(C)C)C(=O)N[C@@H](CCCN=C(N)N)C(=O)N[C@@H](CC(C)C)C(=O)N[C@@H](CCCCN)C(=O)N[C@@H](CCCCN)C(=O)O)C(C)C [HIQKEDVPSERYLGYLEQLLRLKK]	MIC [2]: ≥ 186 µM
≥ 312	≥ 2500	≥ 2500	≥ 1250	≥ 2500	≥ 1250	≥ 1250	≥ 1250	≥ 1250	≥ 1250	≥ 625	≥ 1250	≥ 1250	–	CC[C@H](C)[C@H](N)C(=O)N[C@@H](CCCN=C(N)N)C(=O)N[C@@H](CCCN=C(N)N)C(=O)N[C@@H](CCC(N)=O)C(=O)NCC(=O)N[C@@H](CC(C)C)C(=O)N1CCC[C@H]1C(=O)N[C@@H](CCC(=O)O)C(=O)O [IRRQGLPE]	–
≥ 1250	≥ 1250	≥ 1250	≥ 1250	≥ 1250	≥ 1250	≥ 1250	≥ 1250	≥ 2500	≥ 2500	≥ 625	≥ 1250	≥ 2500	–	CC(C)C[C@H](NC(=O)CNC(=O)[C@H](CCC(N)=O)NC(=O)[C@H](Cc1cnc[nH]1)NC(=O)[C@@H](N)CCCCN)C(=O)N1CCC[C@H]1C(=O)N[C@@H](CCC(N)=O)C(=O)N[C@@H](CCC(=O)O)C(=O)O [KHQGLPQE]	–
–	–	–	–	–	–	–	–	–	–	–	–	–	0.24 (≈ 0.492 µg/mL)	CC[C@H](C)[C@H](NC(=O)[C@H](CCCN=C(N)N)NC(=O)[C@@H](N)CCCN=C(N)N)C(=O)N[C@@H](CCCN=C(N)N)C(=O)N1CCC[C@H]1C(=O)N[C@@H](CCCN=C(N)N)C(=O)N1CCC[C@H]1C(=O)N1CCC[C@H]1C(=O)N[C@@H](CCCN=C(N)N)C(=O)N[C@@H](CC(C)C)C(=O)N1CCC[C@H]1C(=O)N[C@@H](CCCN=C(N)N)C(=O)N1CCC[C@H]1C(=O)N[C@@H](CCCN=C(N)N)C(=O)N1CCC[C@H]1C(=O)N[C@@H](CCCCN)C(=O)O [RRIRPRPPRLPRPRPK]	–
–	–	–	–	–	–	–	–	–	–	–	–	–	0.3 (≈ 0.627 µg/mL)	CC(C)C[C@H](NC(=O)[C@H](CCCN=C(N)N)NC(=O)[C@@H]1CCCN1C(=O)[C@@H]1CCCN1C(=O)[C@H](CCCN=C(N)N)NC(=O)[C@@H]1CCCN1C(=O)[C@H](CCCN=C(N)N)NC(=O)[C@H](CCCCN)NC(=O)[C@H](CCCN=C(N)N)NC(=O)[C@@H](N)CCCN=C(N)N)C(=O)N1CCC[C@H]1C(=O)N[C@@H](CCCN=C(N)N)C(=O)N1CCC[C@H]1C(=O)N[C@@H](CCCN=C(N)N)C(=O)N1CCC[C@H]1C(=O)N[C@@H](CCCN=C(N)N)C(=O)O [RRKRPRPPRLPRPRPR]	–
–	–	–	–	–	–	–	–	–	–	–	–	–	1.99 (≈ 4.8 µg/mL)	CC[C@H](C)[C@H](NC(=O)[C@H](CCCN=C(N)N)NC(=O)[C@H](CCCN=C(N)N)NC(=O)[C@@H]1CCCN1C(=O)[C@@H]1CCCN1C(=O)[C@H](CCCN=C(N)N)NC(=O)[C@@H]1CCCN1C(=O)[C@H](CCCN=C(N)N)NC(=O)[C@@H]1CCCN1C(=O)[C@H](CC(C)C)NC(=O)[C@H](Cc1ccc(O)cc1)NC(=O)[C@@H]1CCCN1C(=O)[C@H](CC(N)=O)NC(=O)[C@H](CCCCN)NC(=O)[C@H](CC(=O)O)NC(=O)[C@@H](N)C(C)C)C(=O)N[C@@H](Cc1ccc(O)cc1)C(=O)N[C@@H](CC(N)=O)C(=O)N[C@@H](CCCN=C(N)N)C(N)=O [VDKNPYLPRPRPPRRIYNR]	–
–	–	–	–	–	–	–	–	–	–	–	–	–	2 (≈ 4.8 µg/mL)	CC[C@H](C)[C@H](NC(=O)[C@H](CCCN=C(N)N)NC(=O)[C@H](CCCN=C(N)N)NC(=O)[C@@H]1CCCN1C(=O)[C@@H]1CCCN1C(=O)[C@H](CCCN=C(N)N)NC(=O)[C@@H]1CCCN1C(=O)[C@H](CCCN=C(N)N)NC(=O)[C@@H]1CCCN1C(=O)[C@H](CC(C)C)NC(=O)[C@H](Cc1ccc(O)cc1)NC(=O)[C@H](CS)NC(=O)[C@@H]1CCCN1C(=O)[C@H](CCCCN)NC(=O)[C@H](CC(=O)O)NC(=O)[C@@H](N)C(C)C)C(=O)N[C@@H](Cc1ccc(O)cc1)C(=O)N[C@@H](CC(N)=O)C(=O)N[C@@H](CCCN=C(N)N)C(N)=O [VDKPCYLPRPRPPRRIYNR]	–
–	–	–	–	–	–	–	–	–	–	–	–	–	0.965 (≈ 2.4 µg/mL)	CC[C@H](C)[C@H](NC(=O)[C@H](CCCN=C(N)N)NC(=O)[C@H](CCCN=C(N)N)NC(=O)[C@@H]1CCCN1C(=O)[C@@H]1CCCN1C(=O)[C@H](CCCN=C(N)N)NC(=O)[C@@H]1CCCN1C(=O)[C@H](CCCN=C(N)N)NC(=O)[C@@H]1CCCN1C(=O)[C@H](CCCN=C(N)N)NC(=O)[C@H](CCCN=C(N)N)NC(=O)[C@@H]1CCCN1C(=O)[C@H](CCCN=C(N)N)NC(=O)[C@H](CCCCN)NC(=O)[C@H](CC(=O)O)NC(=O)[C@@H](N)C(C)C)C(=O)N[C@@H](Cc1ccc(O)cc1)C(=O)N[C@@H](CC(N)=O)C(=O)N[C@@H](CCCN=C(N)N)C(N)=O [VDKRPRRPRPRPPRRIYNR]	–
≥ 1250	≥ 2500	≥ 1250	≥ 1250	≥ 1250	≥ 625	≥ 625	≥ 1250	≥ 2500	≥ 2500	≥ 625	≥ 1250	≥ 2500	–	CC(C)C[C@H](NC(=O)[C@H](C)NC(=O)[C@H](CC(N)=O)NC(=O)[C@H](CCC(=O)O)NC(=O)[C@H](CC(N)=O)NC(=O)[C@H](CC(C)C)NC(=O)[C@@H](N)C(C)C)C(=O)N[C@@H](CCCN=C(N)N)C(=O)O [VLNENALR]	–
≥ 1250	≥ 1250	≥ 1250	≥ 1250	≥ 1250	≥ 312	≥ 1250	≥ 1250	≥ 2500	≥ 2500	≥ 1250	≥ 1250	≥ 2500	–	CC(C)C[C@H](NC(=O)[C@H](CC(C)C)NC(=O)[C@H](CC(N)=O)NC(=O)[C@H](CCC(=O)O)NC(=O)[C@H](CC(N)=O)NC(=O)[C@H](CC(C)C)NC(=O)[C@@H](N)C(C)C)C(=O)O [VLNENLL]	–
≥ 625	≥ 2500	≥ 1250	≥ 1250	≥ 2500	≥ 1250	≥ 1250	≥ 1250	≥ 1250	≥ 625	≥ 1250	≥ 1250	≥ 1250	–	CC(C)C[C@H](NC(=O)[C@H](CC(N)=O)NC(=O)[C@H](CCC(=O)O)NC(=O)[C@H](CC(N)=O)NC(=O)[C@H](CC(C)C)NC(=O)[C@@H](N)C(C)C)C(=O)N[C@@H](CCCN=C(N)N)C(=O)N[C@@H](CCCN=C(N)N)C(=O)O [VLNENLRR]	MIC [17]: 32 µM (≈ 32.4 µg/mL)
